Assay results reported in patent US20190134039A1, “ANTIVIRAL JAK INHIBITORS USEFUL IN TREATING OR PREVENTING RETROVIRAL AND OTHER VIRAL INFECTIONS” (EMORY UNIVERSITY, priority 2011, published 2019).
Read-outs that look alike come from different tables or passages of the source.

Key:
CEM cells = experiment: cells; conditions: Homo sapiens, CCRF-CEM, read-out: IC50 in CEM cells *MTT Assay
HIV-1BaL = experiment: microbe, parasite or virus in culture; conditions: Human immunodeficiency virus 1, Macrophage, in Homo sapiens
Experimental: Macrophages were isolated as follows: Monocytes were isolated from buffy coats of HIV-1 negative, HBV/HCV-negative donors with density gradient centrifugation coupled with enrichment for CD14+ monocytes with Rosette Sep antibody cocktail (Stem Cell Technologies, Vancouver, British Columbia). Cells were seeded at a concentration of 1.0×10^6 cells/well for 1 hr at 37° C. and 5% CO2 to confer plastic adherence prior to repeated washes with 1×PBS. Macrophages were maintained in medium containing 100 U/ml macrophage colony-stimulating factor (m-CSF, R&D Systems, Minneapolis, Minn.), supplemented with 20% fetal calf serum (Atlanta Biologicals, Lawrenceville, Ga.) and 1% penicillin/streptomyocin (Invitrogen, Carlsbad, Calif.) for 7 days (37° C., 5% CO2) prior to testing.
Macrophage infections: Macrophages were cultured as described above for 7 days. […] 4 hrs after infection, virus was removed and drug-containing medium was returned to the cultures. Supernatants were collected on day 7 post-infection and HIV-1 p24 was quantified via ELISA (Zeptometrix Corporation, Buffalo, N.Y.). EC50 analysis was performed using CalcuSyn software (BioSoft Corporation, Cambridge, UK).

PHA + IL-2 PBM cells = experiment: cells; conditions: Homo sapiens, PBMC, read-out: IC50 in PHA + IL-2 PBM cells *MTT Assay
[1] = tested on: HIV-1 containing A62V/V75I/F77L/F116Y/Q151M; experiment: microbe, parasite or virus in culture; format: cell-based
Mφ = experiment: cells; conditions: Homo sapiens, read-out: IC50 in Mφ *MTT Assay
PBM cells = experiment: cells; conditions: Homo sapiens, PBMC, read-out: IC50 in PBM cells *Propidium Iodide assay
HIV-1 containing K65R = experiment: microbe, parasite or virus in culture; format: cell-based
Vero cells = experiment: cells; conditions: Chlorocebus sabaeus, read-out: IC50 in Vero cells *MTT Assay
[2] = tested on: PHA+IL-2 stimulated primary human lymphocytes; experiment: Proliferation and viability of PHA+IL-2 stimulated primary human lymphocytes; format: cell-based; conditions: PHA+IL-2 stimulated lymphocytes, 5 days
Experimental: (§1) The effect of various Jak inhibitors on proliferation and viability of PHA or PHA+IL-2 stimulated primary human lymphocytes was evaluated using the techniques described above.
(§2) For all experiments, cells were incubated with media alone or drug-containing medium for 5 days prior to assessment of cell count and viability. Data are mean and standard deviations for at least three independent experiments conducted with at least 4 pooled donors, and duplicates within each experiment.

HIV-1 containing M184V = experiment: microbe, parasite or virus in culture; format: cell-based
pSTAT1 = experiment: cells
latent HIV-1 [3] = experiment: Reactivation of latent HIV-1, J-Lat latency T cell system; format: cell-based; conditions: concentrations found during steady-state or Cmax in vivo
[4] = tested on: PHA stimulated primary human lymphocytes; experiment: Proliferation and viability of PHA stimulated primary human lymphocytes; format: cell-based; conditions: 5 days, all concentrations
Experimental: as §1, §2

latent HIV-1 [5] = experiment: Reactivation of latent HIV-1 in primary human macrophages (PMA, p24 ELISA); format: cell-based; conditions: drug applied during reactivation, removed thereafter, within 72 hr post reactivation
[6] = tested on: acute infection in rhesus macaque macrophages; experiment: cells; conditions: for EC90: read-out: Acute infection in rhesus macaque macrophages EC90
Description: (§3) The data (Shown in Table 5 below) are mean and standard deviations from at least three independent experiments.

[7] = tested on: acute infection in rhesus macaque lymphocytes; experiment: cells; conditions: Macaca mulatta, Lymphocyte
Description: as §3

wild-type HIV-1xxLAI = experiment: Antiviral potency in primary human lymphocytes, wild type; format: cell-based; conditions: Human immunodeficiency virus 1, Lymphocyte, xxLAI, primary human lymphocytes
PHA stimulated PBM cells = experiment: cells; conditions: Homo sapiens, PBMC, read-out: IC50 in PHA stimulated PBM cells *MTT Assay
pSTAT5 = experiment: cells
pSTAT3 = experiment: cells
latent HIV-1 [8] = experiment: Reactivation of latent HIV-1, primary central memory-based T cell latency model; conditions: concentrations found during steady-state or Cmax in vivo
HIV-1 containing L74V = experiment: microbe, parasite or virus in culture; format: cell-based
HIV-2 = experiment: microbe, parasite or virus in culture; conditions: Human immunodeficiency virus 2, PBMC
activated PBM cells = format: cell-based, human
Description: The data is shown in FIG. 2, in terms of total cell number (10^6 cells) versus aM drug in medium.
The data is shown in FIG. 3, in terms of cell viability (%) versus aM drug in medium.

[9] = Human immunodeficiency virus 1, Lymphocyte

Q: Which IC50 (CEM cells) does the source give for N#CC[C@H](C1CCCC1)n1cc(-c2ncnc3[nH]ccc23)cn1 [Jakafi, Ruxolitinib] here?
A: The IC50 was 11800 ± 1100 nM.

Q: What about the EC50 (HIV-1BaL; read-out: Anti-HIV-1 EC50 in acutely infected MΦ) of the same compound?
A: Its EC50 is 300 ± 100 nM.

Q: What about the EC90 (HIV-1BaL; read-out: Anti-HIV-1 EC90 in acutely infected MΦ) of the same compound?
A: Its EC90 is 3100 ± 1800 nM.

Q: And the CC50 (PHA + IL-2 PBM cells)?
A: Its CC50 is 3100 ± 1700 nM.

Q: And the “FI50 (ratio of EC50 against mutant virus:EC50 against wild-type xxLAI)” value ([1]; A62V/V75I/F77L/F116Y/Q151M)?
A: The value was 0.1.

Q: And the “FI90 (ratio of EC90 against mutant virus:EC90 against wild-type xxLAI)” value ([1]; A62V/V75I/F77L/F116Y/Q151M)?
A: The value was 0.3.

Q: And the EC50 [1, 9]?
A: Its EC50 is 30 ± 20 nM.

Q: And the EC90 [1, 9]?
A: Its EC90 is 1500 ± 1500 nM.

Q: And the IC50 (Mφ)?
A: The IC50 was greater than 100000 nM.

Q: And the IC50 (PBM cells)?
A: The IC50 was greater than 50000 nM.

Q: And the EC50 (HIV-1 containing K65R; [9])?
A: The EC50 was 200 ± 300 nM.

Q: What about the EC90 (HIV-1 containing K65R; [9]) of the same compound?
A: Its EC90 is 8500 ± 8100 nM.

Q: And the “FI50 (ratio of EC50 against mutant virus:EC50 against wild-type xxLAI)” value (HIV-1 containing K65R; K65R)?
A: The value was 0.8.

Q: And the “FI90 (ratio of EC90 against mutant virus:EC90 against wild-type xxLAI)” value (HIV-1 containing K65R; K65R)?
A: The value was 1.4.

Q: What about the IC50 (Vero cells) of the same compound?
A: The IC50 was 29300 ± 3700 nM.

Q: And the “proliferation versus cells exposed to media alone” value ([2]; 1.0 μM)?
A: Its value is “significantly inhibited”.

Q: And the “viability versus cells exposed to media alone” value ([2]; all concentrations)?
A: Its value is “not significantly different”.

Q: And the EC90 (HIV-1 containing M184V; [9])?
A: The EC90 was 3200 ± 2300 nM.

Q: What about the “FI50 (ratio of EC50 against mutant virus:EC50 against wild-type xxLAI)” value (HIV-1 containing M184V; M184V) of the same compound?
A: Its value is 1.3.

Q: What about the “FI90 (ratio of EC90 against mutant virus:EC90 against wild-type xxLAI)” value (HIV-1 containing M184V; M184V) of the same compound?
A: The value was 0.5.

Q: What about the EC50 (pSTAT1; read-out: EC50 pSTAT1) of the same compound?
A: Its EC50 is less than 10 nM.

Q: And the EC90 (pSTAT1; read-out: EC90 pSTAT1)?
A: The EC90 was less than 10 nM.

Q: And the “inhibition of reactivation of latent HIV-1” value (latent HIV-1 [3])?
A: The value was no less than 50%.

Q: And the “proliferation versus cells exposed to media alone” value [4]?
A: The value was “not significantly different”.

Q: And the “viability versus cells exposed to media alone” value [4]?
A: Its value is “not significantly different”.

Q: What about the “percent inhibition of reactivation of latent HIV-1 versus no drug control” value (latent HIV-1 [5]) of the same compound?
A: The value was roughly 35%.

Q: And the EC50 ([6]; Macaca mulatta, Macrophage, read-out: Acute infection in rhesus macaque macrophages EC50)?
A: The EC50 was roughly 400 nM.

Q: And the EC90 ([6]; Macaca mulatta, Macrophage)?
A: Its EC90 is roughly 4000 nM.

Q: What about the EC90 [6] of the same compound?
A: Its EC90 is 4200 ± 1300 nM.

Q: What about the EC50 ([7]; read-out: Acute infection in rhesus macaque lymphocytes EC50) of the same compound?
A: Its EC50 is 90 ± 100 nM.

Q: And the EC90 ([7]; read-out: Acute infection in rhesus macaque lymphocytes EC90)?
A: The EC90 was 1300 ± 800 nM.

Q: And the EC50 (wild-type HIV-1xxLAI; read-out: EC50)?
A: The EC50 was 300 ± 300 nM.

Q: And the EC90 (wild-type HIV-1xxLAI; read-out: EC90)?
A: Its EC90 is 6100 ± 7600 nM.

Q: And the IC50 (PHA stimulated PBM cells)?
A: The IC50 was 9100 ± 1300 nM.

Q: And the EC50 (pSTAT5; read-out: EC50 pSTAT5)?
A: Its EC50 is less than 10 nM.

Q: And the EC90 (pSTAT5; read-out: EC90 pSTAT5)?
A: Its EC90 is less than 10 nM.

Q: And the EC50 (pSTAT3; read-out: EC50 pSTAT3)?
A: Its EC50 is less than 10 nM.

Q: What about the EC90 (pSTAT3; read-out: EC90 pSTAT3) of the same compound?
A: The EC90 was 10 nM.

Q: What about the “inhibition of reactivation of latent HIV-1” value (latent HIV-1 [8]) of the same compound?
A: Its value is no less than 50%.

Q: What about the EC50 (HIV-1 containing L74V; [9]) of the same compound?
A: Its EC50 is 100 ± 200 nM.

Q: And the EC90 (HIV-1 containing L74V; [9])?
A: The EC90 was 3200 ± 2600 nM.

Q: What about the “FI50 (ratio of EC50 against mutant virus:EC50 against wild-type xxLAI)” value (HIV-1 containing L74V; L74V) of the same compound?
A: The value was 0.5.

Q: What about the “FI90 (ratio of EC90 against mutant virus:EC90 against wild-type xxLAI)” value (HIV-1 containing L74V; L74V) of the same compound?
A: Its value is 0.5.

Q: What about the EC50 (HIV-2; read-out: Anti-HIV-2 EC50 in acutely infected PBM cells) of the same compound?
A: The EC50 was 20 ± 10 nM.

Q: What about the EC90 (HIV-2; read-out: Anti-HIV-2 EC90 in acutely infected PBM cells) of the same compound?
A: Its EC90 is 400 ± 200 nM.

Q: What about the “total cell proliferation (total cell number)” value (activated PBM cells) of the same compound?
A: Its value is “do not affect total cell proliferation”.

Q: And the total cell viability (activated PBM cells)?
A: The total cell viability was “do not affect total cell viability”.
